The values that follow are results of earlier work, collected in patent US20190321427A1, “Compositions to Treat Anal Fissures” (G&S Laboratories, Inc., priority 2018, published 2019).

In the series the test system is anal fissures.

Where two headings read alike, the source gives them in different places.

Turning to `O=[N+]([O-])OCC(CO[N+](=O)[O-])O[N+](=O)[O-]` [nitroglycerin], the healing rates (anal fissure, literature (Poh, 2010)) is listed as 40-70%. The common side effect entry (topical treatment of anal fissure) was “headache”.
For the compound botulinum toxin, where the note is “in vivo”, the healing rates is reported as 30-96%.
